Values of other authors in patent US11293039B2, “Method for producing organic acid salts from fermentation broth” (METABOLIC EXPLORER, priority 2017, dated 2022).

conditions: dilute aqueous solution, 25 °C

Which pKa does the source give for `CC(Cl)C(=O)O` (stereo not shown) [2-Chloropropanoic acid] here?
Its pKa is 2.83.

Which pKa does the source give for `O=C(O)CCCl` [3-Chloropropanoic acid] here?
Its pKa is 3.98.

For `CC(CC(=O)O)CC(=O)O` [3-Methylglutaric acid], which pKa is on record?
Its pKa is 4.24.

Which pKa does the source give for `N#CCCCC(=O)O` [4-Cyanobutanoic acid] here?
The pKa was 2.42.

Which pKa does the source give for `N#CCC(=O)O` [Cyanoacetic acid] here?
Its pKa is 2.45.

Which pKa does the source give for `O=C(O)C(O)CO` (stereo not shown) [Glyceric acid] here?
The pKa was 3.52.

For `CC(C(=O)O)C(=O)O` [Methymalonic acid], which pKa is on record?
Its pKa is 3.07.

For `O=C(O)CCCCCCC(=O)O` [Octanedioic acid], which pKa is on record?
The pKa was 4.52.

Which pKa does the source give for `O=C(O)[C@@H]1CCCCN1` [l-Pipecolic acid] here?
The pKa was 2.28.

Which pKa does the source give for Alloxanic acid here?
Its pKa is 6.64.
